From patent publication US7241731B2, “Oligopeptides for promoting hair growth” (Sumitomo Electric Industries, Ltd., priority 2000, dated 2007)
Bridge positions count the residues as written; N and C are the ends. Primed or numbered codes have the meaning given here. Ends that are not written are not given here. I, II: the chains in the order shown. * marks the point of attachment. Biotin = O=C1N[C@H]2[C@H](CS[C@H]2CCCCC(=O)*)N1; BMH′ = not defined here

Key:
[1] = system: antigen of about 220 kDa present in new follicle (antigen of mAb27); assay: Skin tissues of maxilla of ICR mice incubated with test oligopeptide, Western blot with mAb 27; type: cell-based; details: for hair growth promoting activity (mAb 27 band stronger than control): Example 10, FIG. 4 and 5, BMH-treated oligopeptides of Example 9, 20 μCM
Experimental: The skin tissues of maxilla of ICR mice (pregnancy 12 days) were collected by stereoscopic microscope, and left and right sides were respectively recovered from 5 mice. 5 pieces of each of the thus collected left (for control) and right (for test oligopeptides) skins from 5 mice were respectively placed on 1 nuclepore membrane (pore diameter 8 μm; diameter 13 mm), and were set in such a way that the outside upturns by observing the samples with stereoscopic microscope. 500 μl of Dulbecco's MEM/Ham F12 medium containing 1% BSA was added to 2 wells of 24 well dish. The test oligopeptide in a solvent (PBS) was added in a final concentration of 20 μCM to one well, and solvent (PBS) was added in the same amount to the other well as a control. The oligopeptides synthesized in Example 9 were used as the test oligopeptides.
(§1) Each membrane having skin tissues thereon was launched on the solution in the above wells, and was incubated at 37° C. for 6 days. 5 pieces of tissue were recovered from the membrane into 100 μl of SDS sample buffer (SDS 0.02 g/ml, glycerol 0.2 g/ml, pH6.8), and dissolved by ultrasonic treatment. The control membrane was also treated similarly. The solution obtained by such a treatment was subjected to electrophoresis (35 mA, 1.5 hour) in SDS-PAGE (acrylamide 4–20%), and transferred to PVDF membrane, and incubated in Tris buffer containing 5% skim milk (TBST) for 1 hour. The membrane was reacted with mAb 27 (10 μg/ml in TBST) obtained in Example 2 for 1 hour, and was washed well with TBS. Then, peroxidase labeled anti-rat IgG (Amersham) (1/1000 diluted in TBST) was reacted as the second antibody, and the membrane was washed well with TBS. The intensity of the reaction of mAb 27 was examined using ECL kit (Amersham).
The skin tissues of maxilla of ICR mice (pregnancy 12 days) were collected by stereoscopic microscope, and left and right sides were respectively recovered from 5 mice. 5 pieces of each of the thus collected left (for control) and right (for test oligopeptides) skins from 5 mice were respectively placed on 1 nuclepore membrane (pore diameter 8 μm; diameter 13 mm), and were set in such a way that the outside upturns by observing the samples with stereoscopic microscope. 500 μl of Dalbecco's MEM/Ham F12 medium containing 1% BSA was added to 2 wells of 24 well dish. The test oligopeptide in a solvent (PBS) was added in a final concentration of 20 μM to one well, and solvent (PBS) was added in the same amount to the other well as a control. The unmodified and modified oligopeptides synthesized in the above (1) were used as the test oligopeptides.
as §1, with “Example 6” for “Example 2”
The skin tissues of maxilla of ICR mice (pregnancy 12 days) were collected by stereoscopic microscope, and left and right sides were respectively recovered from 5 mice. […]

[2] = system: Human keratinocytes (NHEK cell), IL-8 secretion; assay: IL-8 secretion by NHEK cells (ELISA); type: cell-based; details: for secretion amount of IL-8: FIG. 8, 50 μg/ml, deletion variants of b7; for secretion amount of IL-8 / IL-8 inducing activity: 16–20 hours; for IL-8 inducing activity: Table IV, 50 μg/ml, symbols not defined
Experimental: Human keratinocytes (NHEK cell, Clonetics, available from Sanko Jyun-yaku, Ltd.) were cultivated in a medium for proliferation (Clontics) comprising 30 μg/ml BPE, 0.1 ng/ml human EGF, 5 μg/ml insulin, 0.5 μg/ml hydrocortisone, 50 μg/ml gentamycin, and 50 ng/ml amphoterin. These cells were re-suspended at the concentration of 1×10^4 cells/ml in a medium wherein EGF, insulin, and hydrocortisone were removed from the above medium for proliferation, and then 100 μl of the suspension was placed on each well of a 96-well plate. At the same time of the plating of the cells, 5 μl of 1 mg/ml oligopeptide was added to the suspension so as to be final concentration of 50 μg/ml. After cultivation for 16–20 hours, the amount of IL-8 in the culture supernatants was measured by ELISA kit (ENDOGEN).

[3] = system: transition from telogen to anagen (hair cycle); assay: Evaluation of hair growth promoting activity by in vivo method (shaved telogen mice, hair growth score); set-up: species or system C57BL/6 mice; details: for hair restoration compared with the control group (hair growth score): topical application until 38th day, FIGS. 6 and 7; for Hair growth Activity: Table IV, symbols not defined
Experimental: C3H and C57BL/6 mice are known to have sustained telogen for about 50 days from the 45th day after the birth to around the 95th day. Their hair cycle is easily judged based on the skin color changes, i.e., from pink in telogen to gray or black in anagen. A test for evaluating whether or not the administration the oligopeptides of the present invention promotes the transition from telogen to anagen was carried out using the mice. Seven weeks old (48 to 50-day old, female) C57BL/6 mice were purchased and hair of the back (about 3×2.5 cm^2) was carefully shaved with electric clippers for animals so as not to injure the skin, and the hair cycle was confirmed to be in telogen from the skin color. The oligopeptide solution prepared above was applied to five mice in each group, once a day and 5 days in a week in the amount of 0.2 ml until 38th day from the start of the test. The application was carried out by using a syringe without needle. Dipeptide (Ile-Lys) and tripeptide (Glu-Ile-Lys) of which N-terminal is biotinylated were mixed, and then added with the cross-linking agent to prepare a control solution.
Plural persons (two persons) observed the mice twice a week by naked eye for evaluation, and gave a 6-graded score depending on a ratio of hair restoration area based on the hair shaved area. At the same time, photographs were taken. Hair growth scores were calculated as follows. At first, the following score was given depending on a ratio of areas where the skin color changes to gray or black in the hair shaved area; 0–20%: 1, 20–40%: 2, 40–60%: 3, 60–80%:4, 80–100%: 5. The sum of the above scores in each group was determined as the hair growth score. The maximum value of the hair growth score of each group was 50 for each of the persons for judgment, and the maximum value of hair growth score was 100 because the judgment was made by two persons.

[4] = cited from earlier work
[5] = Example 11, position of Cys altered, synthesized as in Example 9

With SIECQSDQDE [oligopeptide (B)] the “hair growth promoting activity (mAb 27 band stronger than control)” value ([1]; 6 days) was “have a hair growth promoting activity”.

In the case of EQSCDQDE (Biotin-EQSCDQDE) [b7ΔN2], the “secretion amount of IL-8” value [2] is reported as “slightly decreased”.

With “Lys-Ser-Ile-Glu-Gln-Ser-Cys-Asp-Gln-Asp-Glu (Biotin-KSIEQSCDQDE) [bk7]” the “IL-8 inducing activity compared with oligopeptide b7” value ([2]; FIG. 9, Examples 17 and 18) was “almost the same IL-8 inducing activity as that of oligopeptide b7”.

For SIEQSCDQDE [SEQ ID NO:84], the “hair growth promoting activity” value ([3]; conclusion of Example 15) was “has hair growth promoting activity”.

In the case of “ss7: S-S bridged oligopeptide prepared by reacting the oligopeptide (SEQ ID NO:84 series) with BMH; elsewhere called S-S bridged and biotinylated (SIEQSCDQDE; also: BMH cross-linked dimer, Cys attachment not placed, biotinylated, site not given here)”, the IL-8 inducing activity [2] is reported as “⊚”, the “hair growth promoting activity” value ([1]; Example 16) is reported as “has hair growth promoting activity” and the “band of mAb27 antigen versus control” value ([1]; Example 16, FIG. 13, 20 μM, 6 days) is reported as “a stronger band was detected”. For the same molecule, the “transition to anagen earlier than the control group” value ([3]; C57BL/6 mice, 0.2 ml of oligopeptide solution (0.15 mg/ml, 50% ethanol/PBS) once a day, 5 days in a week) was no less than 7 days, the “hair restoration compared with the control group (hair growth score)” value ([3]; C57BL/6 mice) was “hair restoration was promoted at any time until the hair grew and restored almost completely” and the “Hair growth Activity” value [3] was “⊚”.

In the case of “SIEQSCD (Biotin-SIEQSCD; also: Cys sulfhydryl blocked (group not given here)) [b7ΔC3]”, the “secretion amount of IL-8” value [2] is reported as “maintained”.

With “heterodimer oligopeptide: heterodimer made with BMH from two different oligopeptides; b464 names SEQ ID NO:87 and SEQ ID NO:4, b490 oligopeptides (A) and (B) (chain 1 SIEQSCD; chain 2 SIEQCSD; linker I:6-II:5 via BMH′ (inferred))” the “hair growth promoting activity (mAb 27 band stronger than control)” value ([1]; 6 days) was “had also a hair growth promoting activity”.

For “SIEQSCDQD (Biotin-SIEQSCDQD; also: sulfhydryl blocked) [b7ΔC1]”, the “secretion amount of IL-8” value [2] was “maintained”.

With SIECQSD [SEQ ID NO:5] the “hair growth promoting activity” value [1, 5] was “showed a hair growth promoting activity”.

With SICEQSD [SEQ ID NO:6] the “hair growth promoting activity” value [1, 5] was “showed a hair growth promoting activity”.

In the case of SIEQCSD [SEQ ID NO:4], the “hair growth promoting activity” value [1, 5] is reported as “showed a hair growth promoting activity”.

In the case of “b7: modified oligopeptide having biotin at the N-terminus of Ser-Ile-Glu-Gln-Ser-Cys-Asp-Gln-Asp-Glu (SEQ ID NO:84) (Biotin-SIEQSCDQDE)”, the IL-8 inducing activity [2] is reported as “⊚”, the “hair restoration compared with the control group (hair growth score)” value ([3]; C57BL/6 mice) is reported as “hair restoration was promoted until about 30 days from the start of the test” and the “Hair growth Activity” value [3] is reported as “◯”.

For “SIEQSCDQ (Biotin-SIEQSCDQ; also: Cys sulfhydryl blocked (group not given here)) [b7ΔC2]”, the “secretion amount of IL-8” value [2] was “maintained”.

For “SIEQSC (Biotin-SIEQSC; also: Cys sulfhydryl blocked (group not given here)) [b7ΔC4]”, the “secretion amount of IL-8” value [2] was “maintained”.

For SICEQSDQDE [oligopeptide (C)], the “hair growth promoting activity (mAb 27 band stronger than control)” value ([1]; 6 days) was “have a hair growth promoting activity”.

For IEQSCDQDE (Biotin-IEQSCDQDE) [b7ΔN1], the “secretion amount of IL-8” value [2] was “slightly decreased”.

In the case of QSCDQDE (Biotin-QSCDQDE) [b7ΔN3], the “secretion amount of IL-8” value [2] is reported as “slightly decreased”.

In the case of SIECQSDQ [oligopeptide (D)], the “hair growth promoting activity (mAb 27 band stronger than control)” value ([1]; 6 days) is reported as “had a hair growth promoting activity”.

For SIEQCSDQDE [oligopeptide (A)], the “hair growth promoting activity (mAb 27 band stronger than control)” value ([1]; 6 days) was “have a hair growth promoting activity”.

In the case of SIEQS (Biotin-SIEQS) [b7ΔC5], the “secretion amount of IL-8” value [2] is reported as “significantly decreased”.

B1: Native mammalian epimorphin: protein of 277 to 289 amino acids promoting the morphogenesis of epithelial tissue (protein, UniProt P32856 1-288, looked up)
Syntaxin-2: MRDRLPDLTACRKNDDGDTVVVVEKDHFMDDFFHQVEEIRNSIDKITQYVEEVKKNHSIILSAPNPEGKIKEELEDLNKEIKKTANKIRAKLKAIEQSFDQDESGNRTSVDLRIRRTQHSVLSRKFVEAMAEYNEAQTLFRERSKGRIQRQLEITGRTTTDDELEEMLESGKPSIFTSDIISDSQITRQALNEIESRHKDIMKLETSIRELHEMFMDMAMFVETQGEMINNIERNVMNATDYVEHAKEETKKAIKYQSKARRKKWIIIAVSVVLVAIIALIIGLSVGK
For B1, the “solubility in aqueous media such as saline” value [4] is listed as “almost insoluble”.
